Drawing on patent US6646151B1 (dated 2003), this text covers melting point for 3 compounds.

Turning to `CO/C=C(/C(=O)OC)c1ccccc1CO/N=C(C)/C(=N/OC)c1ccc(OCc2cccc(C(F)(F)F)c2)cc1`, the melting point was 102 to 103 °C.

In turn, `C#CCO/N=C(/C(C)=NOCc1ccccc1C(=COC)C(=O)OC)c1ccc(F)cc1` registered a melting point of 91 to 93 °C.

Turning to `CCO/N=C(/C(C)=NOCc1ccccc1C(=NOC)C(=O)OC)c1ccc(Oc2ccc(Cl)cc2)cc1`, the melting point was in the range of 90 to 93 °C.

In general, melting point refers to the temperature, or range, at which the solid turns liquid.
